Results as given in patent publication US20160046618A1, “Cyclopropyl Fused Thiazin-2-Amine Compounds as Beta-Secretase Inhibitors and Methods of Use” (AMGEN INC., priority 2014, published 2016).
Where two headings read alike, the source gives them in different places.

Key:
Recombinant Cat D = Recombinant Cat D (Homo sapiens (Human), UniProt P07339); experiment: In vitro enzymatic Cathepsin D (Cat D) FRET assay; assay type: biochemical; details: read-out: IC50 IP (μM) CatD
In short: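 Cleavage of a 20 nM fluorophore/quencher peptide by CHO-expressed recombinant Cat D proceeded for one hour at pH 3.5 (0.05 M citrate, 5 mM CHAPS, 10% DMSO final). Tris addition neutralized the pH to end the reaction. Fluorescence was then measured (ex 500 nm/em 580 nm).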

Aβ 40 in rat CSF = experiment: In vivo inhibition of beta-secretase: Aβ40 reduction in rat CSF; details: 10 mpk, after 4 h
In short: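 Male Sprague Dawley rats (200 g) dosed orally in 2% HPMC, 1% Tween80, pH 2.2, at 3, 10 or 30 mg/kg; CSF and brain taken 4 h later. Brain homogenate centrifuged at 355,000 g; Aβ40 measured by ECL sandwich ELISA (4G8 capture, Abeta40 C-terminal Fab detection), as % reduction versus vehicle controls.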

human recombinant BACE1 = human recombinant BACE1 (Homo sapiens (Human), UniProt P56817); experiment: In vitro enzymatic BACE1 FRET assay; assay type: biochemical; details: read-out: IC50 IP (μM) BACE1 enzyme
Chain of human recombinant BACE1 (P56817 46-501): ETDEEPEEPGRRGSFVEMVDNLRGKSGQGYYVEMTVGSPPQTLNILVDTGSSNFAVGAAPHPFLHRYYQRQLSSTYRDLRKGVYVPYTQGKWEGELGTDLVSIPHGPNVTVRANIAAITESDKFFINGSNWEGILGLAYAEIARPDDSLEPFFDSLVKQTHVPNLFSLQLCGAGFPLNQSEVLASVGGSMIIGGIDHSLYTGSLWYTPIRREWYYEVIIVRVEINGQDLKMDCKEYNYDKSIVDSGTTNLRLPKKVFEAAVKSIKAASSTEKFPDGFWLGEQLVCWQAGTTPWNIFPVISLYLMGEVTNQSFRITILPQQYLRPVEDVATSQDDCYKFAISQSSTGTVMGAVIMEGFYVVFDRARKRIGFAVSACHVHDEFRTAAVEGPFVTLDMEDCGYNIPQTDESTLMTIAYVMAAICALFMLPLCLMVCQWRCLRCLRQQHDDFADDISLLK
In short: (§1)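 Tris addition raises the pH to neutral to stop the reaction before fluorescence is measured at 590 nm emission with 488 nm excitation.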

Aβ 40 in rat brain = experiment: In vivo inhibition of beta-secretase: Aβ40 reduction in rat brain; details: 10 mpk, after 4 h
In short: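 Rats were dosed by oral gavage at up to 100 mg/kg in 2% HPMC, 1% Tween80, pH 2.2, with vehicle-only controls. Supernatant Aβ40 was measured by ECL sandwich ELISA with biotinylated-4G8 capture and C-terminal Fab40 detection.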

[1] = system: Aβ40 in conditioned medium of cells stably expressing Amyloid Precursor Protein (APP); experiment: In vitro BACE-1 cell-based assay (Aβ40 sandwich ELISA); details: read-out: IC50 IP (μM) BACE1 cell
In short: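 Read-out: time-resolved fluorescence (Streptavidin-Europium) of Aβ40 captured by pAb40 and detected with biotinylated 6E10 from supernatants of APP-stable cells. Cells were exposed to compound for 24 h, 10-point dose response, top dose 100 μM or 10 μM, 0.1% DMSO. IC50 fitted to percent of control.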

human recombinant BACE2 = human recombinant BACE2 (Homo sapiens (Human), UniProt Q9Y5Z0); experiment: In vitro enzymatic BACE2 FRET assay; assay type: biochemical; details: read-out: IC50 IP (μM) BACE2 enzyme
Chain of human recombinant BACE2 (Q9Y5Z0 63-518): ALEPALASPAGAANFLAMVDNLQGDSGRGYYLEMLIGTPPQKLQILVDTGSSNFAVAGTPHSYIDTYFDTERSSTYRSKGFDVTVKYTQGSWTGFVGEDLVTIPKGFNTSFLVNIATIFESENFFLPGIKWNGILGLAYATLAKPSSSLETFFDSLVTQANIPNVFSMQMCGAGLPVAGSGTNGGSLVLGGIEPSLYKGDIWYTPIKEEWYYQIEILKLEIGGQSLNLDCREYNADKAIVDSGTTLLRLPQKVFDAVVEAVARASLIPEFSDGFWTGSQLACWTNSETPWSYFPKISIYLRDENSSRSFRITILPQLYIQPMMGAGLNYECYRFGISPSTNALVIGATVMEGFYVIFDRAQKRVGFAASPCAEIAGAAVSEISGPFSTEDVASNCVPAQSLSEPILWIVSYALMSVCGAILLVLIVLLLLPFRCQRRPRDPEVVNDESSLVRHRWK
In short: as §1

Chain of Recombinant Cat D (P07339 65-412): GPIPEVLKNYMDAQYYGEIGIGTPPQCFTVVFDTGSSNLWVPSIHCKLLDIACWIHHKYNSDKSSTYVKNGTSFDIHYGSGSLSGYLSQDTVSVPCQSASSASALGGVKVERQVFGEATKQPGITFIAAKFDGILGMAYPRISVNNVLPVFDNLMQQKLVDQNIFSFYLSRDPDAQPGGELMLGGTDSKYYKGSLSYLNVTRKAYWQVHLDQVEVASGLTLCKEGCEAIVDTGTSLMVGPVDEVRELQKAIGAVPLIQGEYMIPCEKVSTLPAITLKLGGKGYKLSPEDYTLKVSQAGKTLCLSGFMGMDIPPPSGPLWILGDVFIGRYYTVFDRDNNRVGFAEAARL

IC50 (Recombinant Cat D)	IC50 (human recombinant BACE1)	IC50 [1]	IC50 (human recombinant BACE2)	IC50 (Recombinant Cat D; Cathepsin D FRET enzyme assay)	IC50 (human recombinant BACE1; BACE1 FRET enzyme assay)	IC50 ([1]; BACE1 cell-based assay)	IC50 (human recombinant BACE2; BACE2 FRET enzyme assay)	Compound	% Aβ 40 reduction in rat CSF at 10 mpk (Aβ 40 in rat CSF)	% Aβ 40 reduction in rat brain at 10 mpk (Aβ 40 in rat brain)
> 400 µM	0.000426 µM	0.00195 µM	0.0101 µM					C#CCOc1cnc2c(Nc3cc(F)c(F)c([C@@]4(C)N=C(N)S[C@@]5(C(=O)NC)C[C@H]54)c3)nccc2n1 [Example 915, (1S,5S,6S)-3-amino-5-(2,3-difluoro-5-((2-(2-propyn-1-yloxy)pyrido[3,4-b]pyrazin-5-yl)amino)phenyl)-N,5-dimethyl-2-thia-4-azabicyclo[4.1.0]hept-3-ene-1-carboxamide]	51%	47%
> 400 µM	0.00256 µM	0.0217 µM	0.119 µM					NC1=N[C@](CF)(c2cc(Nc3nccc4nc(OCc5ncco5)cnc34)cc(F)c2F)[C@@H]2C[C@@H]2S1 [Example 842, N-(3-((1S,5S,6S)-3-amino-5-(fluoromethyl)-2-thia-4-azabicyclo[4.1.0]hept-3-en-5-yl)-4,5-difluorophenyl)-2-(1,3-oxazol-2-ylmethoxy)pyrido[3,4-b]pyrazin-5-amine]	51%	25%
432 µM	0.00378 µM	0.0493 µM	0.115 µM					NC1=N[C@](CF)(c2cc(Nc3nccc4nc(OCc5cocn5)cnc34)cc(F)c2F)[C@@H]2C[C@@H]2S1 [Example 843, N-(3-((1S,5S,6S)-3-amino-5-(fluoromethyl)-2-thia-4-azabicyclo[4.1.0]hept-3-en-5-yl)-4,5-difluorophenyl)-2-(1,3-oxazol-4-ylmethoxy)pyrido[3,4-b]pyrazin-5-amine]	51%	16%
145 µM	0.00613 µM	0.0137 µM	0.0163 µM					C[C@]1(c2cc(Nc3ncnc4cc(C#N)cnc34)cc(F)c2F)N=C(N)S[C@@]2(CF)C[C@H]21 [Example 801, 4-((3-((1S,5S,6S)-3-amino-1-(fluoromethyl)-5-methyl-2-thia-4-azabicyclo[4.1.0]hept-3-en-5-yl)-4,5-difluorophenyl)amino)pyrido[3,2-d]pyrimidine-7-carbonitrile]	74%	68%
810 µM	0.000771 µM	0.0207 µM	0.263 µM					C#C[C@H](C)Oc1cnc2c(Nc3ccc(F)c([C@@]4(C)N=C(N)S[C@@]5(CF)C[C@H]54)c3)nccc2n1 [Example 827, N-(3-((1S,5S,6S)-3-amino-1-(fluoromethyl)-5-methyl-2-thia-4-azabicyclo[4.1.0]hept-3-en-5-yl)-4-fluorophenyl)-2-(((1S)-1-methyl-2-propyn-1-yl)oxy)pyrido[3,4-b]pyrazin-5-amine]	41%	19%
> 400 µM	0.000649 µM	0.0038 µM	0.00714 µM					C#CCOc1cnc2c(Nc3cc(F)c(F)c([C@@]4(C)N=C(N)S[C@@]5(C(N)=O)C[C@H]54)c3)nccc2n1 [Example 911, (1S,5S,6S)-3-amino-5-(2,3-difluoro-5-((2-(2-propyn-1-yloxy)pyrido[3,4-b]pyrazin-5-yl)amino)phenyl)-5-methyl-2-thia-4-azabicyclo[4.1.0]hept-3-ene-1-carboxamide]	21%	20%
				> 400 µM	0.00747 µM	0.00437 µM	0.0129 µM	N#Cc1ccc(C(=O)Nc2ccc(F)c([C@@]3(CF)N=C(N)S[C@H]4C[C@H]43)c2)nc1 [Example 2, N-(3-((1S,5S,6S)-3-amino-5-(fluoromethyl)-2-thia-4-azabicyclo[4.1.0]hept-3-en-5-yl)-4-fluorophenyl)-5-cyano-2-pyridinecarboxamide]	72%	67%
> 400 µM	0.000618 µM	0.00287 µM	0.0638 µM					C#C[C@H](C)Oc1cnc(C(=O)Nc2ccc(F)c([C@@]3(C)N=C(N)S[C@@]4(COC)C[C@H]43)c2)cn1 [Example 965, N-(3-((1S,5S,6S)-3-amino-1-(methoxymethyl)-5-methyl-2-thia-4-azabicyclo[4.1.0]hept-3-en-5-yl)-4-fluorophenyl)-5-(((1S)-1-methyl-2-propyn-1-yl)oxy)-2-pyrazinecarboxamide]	33%	20%
> 400 µM	0.00629 µM	0.0315 µM	0.338 µM					C[C@]1(c2cc(NC(=O)c3ccc(OCC(F)(F)F)cn3)ccc2F)N=C(N)S[C@@]2(CF)C[C@H]21 [Example 697, N-(3-((1S,5S,6S)-3-amino-1-(fluoromethyl)-5-methyl-2-thia-4-azabicyclo[4.1.0]hept-3-en-5-yl)-4-fluorophenyl)-5-(2,2,2-trifluoroethoxy)-2-pyridinecarboxamide]	35%	13%
				74.5 µM	0.00551 µM	0.00871 µM	0.0022 µM	NC1=N[C@](CF)(c2cc(NC(=O)c3ccc(Cl)cn3)ccc2F)[C@@H]2C[C@@H]2S1 [Example 1, N-(3-((1S,5S,6S)-3-amino-5-(fluoromethyl)-2-thia-4-azabicyclo[4.1.0]hept-3-en-5-yl)-4-fluorophenyl)-5-chloro-2-pyridinecarboxamide]	58%	28%
550 µM	0.000636 µM	0.00422 µM	0.0185 µM					C#CCOc1cnc2c(Nc3ccc(F)c([C@@]4(C)N=C(N)S[C@]5(CO)[C@H]4C5(F)F)c3)nccc2n1 [Example 707, ((1S,5S,6R)-3-amino-7,7-difluoro-5-(2-fluoro-5-((2-(2-propyn-1-yloxy)pyrido[3,4-b]pyrazin-5-yl)amino)phenyl)-5-methyl-2-thia-4-azabicyclo[4.1.0]hept-3-en-1-yl)methanol]	27%	25%
318 µM	0.000404 µM	0.000489 µM	0.0127 µM					C#CCOc1cnc(C(=O)Nc2ccc(F)c([C@@]3(C)N=C(N)S[C@@]4(COC)C[C@H]43)c2)cn1 [Example 834, N-(3-((1S,5S,6S)-3-amino-1-(methoxymethyl)-5-methyl-2-thia-4-azabicyclo[4.1.0]hept-3-en-5-yl)-4-fluorophenyl)-5-(2-propyn-1-yloxy)-2-pyrazinecarboxamide]	83%	83%
				252 µM	0.00631 µM	0.00352 µM	0.0301 µM	COC[C@]12C[C@H]1[C@@](C)(c1cc(Nc3ncnc4cc(C#N)cnc34)cc(F)c1F)N=C(N)S2 [Example 46, 4-((3-((1S,5S,6S)-3-amino-1-(methoxymethyl)-5-methyl-2-thia-4-azabicyclo[4.1.0]hept-3-en-5-yl)-4,5-difluorophenyl)amino)pyrido[3,2-d]pyrimidine-7-carbonitrile]	73%	67%
122 µM	0.000489 µM	0.00772 µM	0.0242 µM					C#CCOc1cnc2c(Nc3cc(F)c(F)c([C@@]4(C)N=C(N)S[C@@]5(CF)C[C@H]54)c3)nccc2n1 [Example 806, N-(3-((1S,5S,6S)-3-amino-1-(fluoromethyl)-5-methyl-2-thia-4-azabicyclo[4.1.0]hept-3-en-5-yl)-4,5-difluorophenyl)-2-(2-propyn-1-yloxy)pyrido[3,4-b]pyrazin-5-amine]	70%	65%
27 µM	0.000222 µM	0.00497 µM	0.0189 µM					C#CCOc1cnc2c(Nc3cc(F)c(F)c([C@@]4(C)N=C(N)S[C@@]5(C(F)F)C[C@@H]45)c3)nccc2n1 [Example 805, N-(3-((1S,5S,6S)-3-amino-1-(difluoromethyl)-5-methyl-2-thia-4-azabicyclo[4.1.0]hept-3-en-5-yl)-4,5-difluorophenyl)-2-(2-propyn-1-yloxy)pyrido[3,4-b]pyrazin-5-amine]	59%	53%
